In test [1] the test system is Escherichia coli. Description: Antimicrobial activity against Escherichia coli ATCC 25922 at 1 mg/ml incubated for 24 hrs by cup diffusion assay. Type of test: functional. Particulars: ATCC 25922, 24 h, read-out: DIZ.
In test [2] the test system is Pseudomonas aeruginosa. Nature of the test: Antimicrobial activity against Pseudomonas aeruginosa ATCC 27853 at 1 mg/ml incubated for 24 hrs by cup diffusion assay. Format: functional. Particulars: ATCC 27853, 24 h, read-out: DIZ.
Test [3] concerns Lactococcus lactis. Description: Antimicrobial activity against Streptococcus lactis ATCC 14591 at 1 mg/ml incubated for 24 hrs by cup diffusion assay. Type of test: functional. Particulars: ATCC 14591, 24 h, read-out: DIZ.
Test [4] has as its system Staphylococcus aureus. Description: Antimicrobial activity against Staphylococcus aureus ATCC 25923 at 1 mg/ml incubated for 24 hrs by cup diffusion assay. Format: functional. Particulars: ATCC 25923, 24 h, read-out: DIZ.
The subject of test [5] is Candida albicans. Nature of the test: Antimicrobial activity against Candida albicans ATCC 14154 at 1 mg/ml incubated for 24 hrs by cup diffusion assay. Type of test: functional. Particulars: for zone of inhibition at 1000 µg/mL: ATCC 14154, 24 h, read-out: DIZ.
In test [6] the test system is Aspergillus flavus. Nature of the test: Antimicrobial activity against Aspergillus flavus ATCC 23554 at 1 mg/ml incubated for 24 hrs by cup diffusion assay. Format: functional. Particulars: for zone of inhibition at 1000 µg/mL: ATCC 23554, 24 h, read-out: DIZ.
The test system of test [7] is Escherichia coli. Nature of the test: Antimicrobial activity against Escherichia coli ATCC 25922 incubated for 24 hrs by CLSI/NCCLS protocol based method. Type of test: functional. Particulars: ATCC 25922, 24 h.
Test [8] deals with Pseudomonas aeruginosa. Description: Antimicrobial activity against Pseudomonas aeruginosa ATCC 27853 incubated for 24 hrs by CLSI/NCCLS protocol based method. Format: functional. Particulars: ATCC 27853, 24 h.
Test [9] relates to Lactococcus lactis. Description: Antimicrobial activity against Streptococcus lactis ATCC 14591 incubated for 24 hrs by CLSI/NCCLS protocol based method. Type of test: functional. Particulars: ATCC 14591, 24 h.
The test system of test [10] is Staphylococcus aureus. Nature of the test: Antimicrobial activity against Staphylococcus aureus ATCC 25923 incubated for 24 hrs by CLSI/NCCLS protocol based method. Format: functional. Particulars: ATCC 25923, 24 h.
Test [11] concerns Candida albicans. Nature of the test: Antimicrobial activity against Candida albicans ATCC 14154 incubated for 24 hrs by CLSI/NCCLS protocol based method. Format: functional.
The subject of test [12] is Aspergillus flavus. Description: Antimicrobial activity against Aspergillus flavus ATCC 23554 incubated for 24 hrs by CLSI/NCCLS protocol based method. Type of test: functional.
The next test has as its system MCF7. Description: Growth inhibition of human MCF7 cells incubated for 48 hrs by MTT assay. Type of test: functional, cell-based. Particulars: MCF7, 48 h.
The next test has as its system HT-29. Description: cells. Particulars: Homo sapiens, HT-29, 48 h.
In the next test the test system is HepG2. Nature of the test: cells. Particulars: Homo sapiens, HepG2, 48 h.

≈ marks a conversion by molar mass, not a printed value.

As usually defined, the MIC is the smallest concentration in the dilution series that meets the test's criterion for growth inhibition. Usually IC50 stands for the concentration needed to halve the response being measured. Low readings indicate higher potency, high ones lower potency.

With `Cc1nn(C(=O)c2[nH]nc(-c3ccc(Cl)cc3)c2N)c(C)c1Cl`, the zone of inhibition at 1000 µg/mL in the test on Escherichia coli [1] stood at 15 mm; in the test on Pseudomonas aeruginosa [2], 13 mm; in the test on Lactococcus lactis [3] it was 16 mm; in the test on Staphylococcus aureus [4], 15 mm; with Candida albicans [5], 16 mm; with Aspergillus flavus [6] it was 20 mm. Further, the MIC was found to be 15 µg/mL (≈ 42.8 µM) with Escherichia coli [7]; 10 µg/mL (≈ 28.6 µM) with Pseudomonas aeruginosa [8]; 5 µg/mL (≈ 14.3 µM) against Lactococcus lactis [9]; 10 µg/mL (≈ 28.6 µM) against Staphylococcus aureus [10]; 45 µg/mL (≈ 128 µM) against Candida albicans [11] (ATCC 14154, 24 h); 50 µg/mL (≈ 143 µM) against Aspergillus flavus [12] (ATCC 23554, 24 h). Moreover, the half-inhibitory concentration (IC50) was found to be 780 nM in the test on MCF7, 1100 nM in the test on HT-29 and 970 nM with HepG2.

For the molecule `Cc1nc(Cl)c2[nH]nc(-c3ccc(Cl)cc3)c2n1`, the zone of inhibition at 1000 µg/mL worked out at 12 mm in the test with Escherichia coli [1]; 10 mm in the test on Pseudomonas aeruginosa [2]; 15 mm in the test on Lactococcus lactis [3]; 18 mm in the test on Staphylococcus aureus [4]; 22 mm with Candida albicans [5]; 25 mm in the test with Aspergillus flavus [6]. Moreover, the MIC came out at 50 µg/mL (≈ 179 µM) with Escherichia coli [7]; 35 µg/mL (≈ 125 µM) against Pseudomonas aeruginosa [8]; 35 µg/mL (≈ 125 µM) in the test on Lactococcus lactis [9]; 40 µg/mL (≈ 143 µM) with Staphylococcus aureus [10]; 22 µg/mL (≈ 78.8 µM) with Candida albicans [11] (ATCC 14154, 24 h). In addition, the 50% inhibitory concentration (IC50) in the test on MCF7 stood at 1770 nM; with HT-29, 1520 nM; with HepG2 it was 1620 nM.

Turning to `Cc1nc2c(-c3ccc(Cl)cc3)n[nH]c2c2nnnn12`, the zone of inhibition at 1000 µg/mL in the test on Escherichia coli [1] amounted to 10 mm; with Pseudomonas aeruginosa [2], 8 mm; with Lactococcus lactis [3] it was 20 mm; in the test on Staphylococcus aureus [4] it was 18 mm; in the test on Candida albicans [5], 22 mm; in the test on Aspergillus flavus [6], 26 mm. Moreover, the MIC against Escherichia coli [7] amounted to 10 µg/mL (≈ 35 µM); in the test on Pseudomonas aeruginosa [8] it was 15 µg/mL (≈ 52.5 µM); against Lactococcus lactis [9] it was 10 µg/mL (≈ 35 µM); in the test on Staphylococcus aureus [10] it was 20 µg/mL (≈ 70 µM); in the test on Candida albicans [11] (ATCC 14154, 24 h), 22 µg/mL (≈ 77 µM). In addition, the values for the concentration for half-maximal inhibition (IC50) with MCF7, in the test with HT-29 and in the test with HepG2 were 130 nM, 290 nM and 360 nM, respectively.

NYSTATIN: the results for the inhibition zone (IZ) with Candida albicans [5] and in the test on Aspergillus flavus [6] were 25 mm and 30 mm, respectively. Besides, the MIC was 20 µg/mL against Candida albicans [11] and 25 µg/mL against Aspergillus flavus [12].

For the molecule `Cc1cc(C)n(C(=O)c2[nH]nc(-c3ccc(Cl)cc3)c2N)n1`, the zone of inhibition at 1000 µg/mL with Escherichia coli [1] was 22 mm; in the test on Pseudomonas aeruginosa [2] it was 20 mm; with Lactococcus lactis [3], 30 mm; in the test on Staphylococcus aureus [4], 32 mm; in the test with Candida albicans [5], 18 mm; with Aspergillus flavus [6], 26 mm. Moreover, the MIC came to 20 µg/mL (≈ 63.3 µM) against Escherichia coli [7], 15 µg/mL (≈ 47.5 µM) in the test on Pseudomonas aeruginosa [8], 15 µg/mL (≈ 47.5 µM) in the test on Lactococcus lactis [9] and 25 µg/mL (≈ 79.2 µM) in the test on Staphylococcus aureus [10]. The IC50 with MCF7 worked out at 1450 nM; with HT-29, 1450 nM; with HepG2, 1620 nM.

Turning to `Nn1c(=S)[nH]c2c(-c3ccc(Cl)cc3)n[nH]c2c1=O`, the zone of inhibition at 1000 µg/mL with Escherichia coli [1] came to 8 mm; with Pseudomonas aeruginosa [2], 10 mm; in the test on Lactococcus lactis [3] it was 15 mm; with Staphylococcus aureus [4] it was 20 mm; with Candida albicans [5], 15 mm; in the test on Aspergillus flavus [6] it was 25 mm. Also, the MIC in the test with Escherichia coli [7] came out at 20 µg/mL (≈ 68.1 µM); against Pseudomonas aeruginosa [8], 15 µg/mL (≈ 51.1 µM); against Lactococcus lactis [9], 20 µg/mL (≈ 68.1 µM); against Staphylococcus aureus [10], 20 µg/mL (≈ 68.1 µM); in the test with Candida albicans [11] (ATCC 14154, 24 h), 40 µg/mL (≈ 136 µM); against Aspergillus flavus [12] (ATCC 23554, 24 h) it was 40 µg/mL (≈ 136 µM). For the same molecule, the figures for the half-inhibitory concentration (IC50) with MCF7, with HT-29 and in the test on HepG2 were 840 nM, 1330 nM and 1550 nM, respectively.

Turning to `CC1=NN(C(=O)c2[nH]nc(-c3ccc(Cl)cc3)c2N)C(=O)C1`, the zone of inhibition at 1000 µg/mL in the test with Escherichia coli [1] was found to be 22 mm; with Pseudomonas aeruginosa [2], 20 mm; with Lactococcus lactis [3] it was 26 mm; in the test with Staphylococcus aureus [4], 32 mm; in the test on Candida albicans [5], 18 mm; in the test on Aspergillus flavus [6], 35 mm. In addition, the MIC turned out to be 25 µg/mL (≈ 78.7 µM) in the test on Escherichia coli [7]; 20 µg/mL (≈ 62.9 µM) against Pseudomonas aeruginosa [8]; 20 µg/mL (≈ 62.9 µM) with Lactococcus lactis [9]; 30 µg/mL (≈ 94.4 µM) in the test on Staphylococcus aureus [10]; 35 µg/mL (≈ 110 µM) with Candida albicans [11] (ATCC 14154, 24 h); 40 µg/mL (≈ 126 µM) in the test on Aspergillus flavus [12] (ATCC 23554, 24 h). For the same molecule, the IC50 is 2540 nM with MCF7, 2780 nM in the test on HT-29 and 2530 nM with HepG2.

On to `Cc1csc(NNC(=O)c2[nH]nc(-c3ccc(Cl)cc3)c2N)n1`, for which the zone of inhibition at 1000 µg/mL with Escherichia coli [1] worked out at 16 mm; with Pseudomonas aeruginosa [2] it was 12 mm; in the test with Lactococcus lactis [3] it was 22 mm; with Staphylococcus aureus [4], 28 mm; in the test with Candida albicans [5], 26 mm; with Aspergillus flavus [6], 28 mm. In addition, the minimum inhibitory concentration (MIC) in the test on Escherichia coli [7] amounted to 20 µg/mL (≈ 57.3 µM); in the test on Pseudomonas aeruginosa [8] it was 15 µg/mL (≈ 43 µM); against Lactococcus lactis [9], 10 µg/mL (≈ 28.7 µM); with Staphylococcus aureus [10], 15 µg/mL (≈ 43 µM); against Candida albicans [11] (ATCC 14154, 24 h), 40 µg/mL (≈ 115 µM); against Aspergillus flavus [12] (ATCC 23554, 24 h) it was 45 µg/mL (≈ 129 µM). In addition, the IC50 amounted to 220 nM in the test on MCF7, 420 nM in the test on HT-29 and 560 nM in the test with HepG2.

Regarding `CO/N=C(\C(=O)N[C@@H]1C(=O)N2C(C(=O)O)=C(COC(C)=O)CS[C@H]12)c1csc(N)n1` [CEFOTAXIME], the zone of inhibition at 1000 µg/mL turned out to be 26 mm with Escherichia coli [1], 18 mm in the test on Pseudomonas aeruginosa [2], 30 mm with Lactococcus lactis [3] and 31 mm with Staphylococcus aureus [4]. The minimal inhibitory concentration (MIC) is 13 µg/mL (≈ 28.5 µM) against Escherichia coli [7], 10 µg/mL (≈ 22 µM) against Pseudomonas aeruginosa [8], 12 µg/mL (≈ 26.3 µM) against Lactococcus lactis [9] and 15 µg/mL (≈ 32.9 µM) against Staphylococcus aureus [10].

Regarding `NC(=S)NNC(=O)c1[nH]nc(-c2ccc(Cl)cc2)c1N`, the zone of inhibition at 1000 µg/mL in the test on Escherichia coli [1] came out at 22 mm; in the test with Pseudomonas aeruginosa [2], 16 mm; in the test on Lactococcus lactis [3], 30 mm; in the test with Staphylococcus aureus [4] it was 34 mm; with Candida albicans [5], 20 mm; with Aspergillus flavus [6], 25 mm. In addition, the minimum inhibitory concentration (MIC) came out at 25 µg/mL (≈ 80.4 µM) with Escherichia coli [7]; 40 µg/mL (≈ 129 µM) against Pseudomonas aeruginosa [8]; 35 µg/mL (≈ 113 µM) in the test with Lactococcus lactis [9]; 30 µg/mL (≈ 96.5 µM) against Staphylococcus aureus [10]; 50 µg/mL (≈ 161 µM) against Candida albicans [11] (ATCC 14154, 24 h); 45 µg/mL (≈ 145 µM) with Aspergillus flavus [12] (ATCC 23554, 24 h). In addition, the values for the IC50 with MCF7, in the test on HT-29 and in the test on HepG2 were 4350 nM, 5590 nM and 4060 nM, respectively.

The values are drawn from ChEMBL document CHEMBL3792355, “Novel pyrazole derivatives with oxa/thiadiazolyl, pyrazolyl moieties and pyrazolo[4,3-d]-pyrimidine derivatives as potential antimicrobial and anticancer agents” (Bioorg Med Chem Lett, 2016).
